We go through 26 compounds from PubChem BioAssay AID256 (DTP/NCI, 2004).

In this test the test system is CD2F1 mice, L1210 leukemia ip, survival T/C. Description: NCI In Vivo Anticancer Drug Screen. Data for tumor model L1210 Leukemia (intraperitoneal) in CD2F1 (CDF1) mice. Conditions: higher = longer survival. Summed up: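 Compound-dosed mice with transplantable tumor versus matched vehicle controls; endpoint ratio T/C reported.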
Setting [1] is: endpoint: mean survival time, dose: 100.0 mg/kg/injection, schedule: Q04DX003 (ip), vehicle: saline with Tween-80.
The mark [2] stands for this setting: endpoint: mean survival time, dose: 200.0 mg/kg/injection, schedule: Q04DX003 (ip), vehicle: saline with Tween-80.
Setting [3] is: endpoint: mean survival time, dose: 400.0 mg/kg/injection, schedule: Q04DX003 (ip), vehicle: saline with Tween-80.
Setting [4] is: endpoint: mean survival time, dose: 100.0 mg/kg/injection, schedule: Q01DX009 (ip), vehicle: saline with Tween-80.
The mark [5] stands for this setting: endpoint: mean survival time, dose: 400.0 mg/kg/injection, schedule: Q01DX009 (ip), vehicle: saline with Tween-80.
[6] abbreviates: endpoint: mean survival time, dose: 100.0 mg/kg/injection, schedule: Q04DX002 (ip), vehicle: saline with Tween-80.
[7] abbreviates: endpoint: mean survival time, dose: 100.0 mg/kg/injection, schedule: Q01DX001 (ip), vehicle: saline.
[8] abbreviates: endpoint: mean survival time, dose: 200.0 mg/kg/injection, schedule: Q01DX001 (ip), vehicle: saline.
Where [9] appears, read: endpoint: mean survival time, dose: 200.0 mg/kg/injection, schedule: Q01DX009 (ip), vehicle: saline with Tween-80.
[10] abbreviates: endpoint: mean survival time, dose: 400.0 mg/kg/injection, schedule: Q01DX001 (ip), vehicle: saline.

Values joined by “and” are separate entries in the source; they are usually repeats but may differ in a detail not shown here. Identical values can stand only once. Inconclusive results and toxic doses are left out.

Regarding `NC(=S)NC(=O)c1ccccc1`, the T/C under setting [1] was 94 % of control, the T/C under setting [2] was 94 % of control and the T/C under setting [3] was 94 % of control.

For the compound `O=C(Nc1ccc2c3c(ccc(NC(=O)c4ccccc4)c13)C=C2)c1ccccc1`, the T/C by setting is: under setting [4], 95 % of control; under setting [5], 89 % of control.

Regarding `Nc1nc(N)nc(Cl)n1`, the T/C was 90 % of control (endpoint: mean survival time, dose: 25.0 mg/kg/injection, schedule: Q04DX002 (ip), vehicle: saline with Tween-80); 101 % of control (endpoint: mean survival time, dose: 50.0 mg/kg/injection, schedule: Q04DX002 (ip), vehicle: saline with Tween-80); 90 % of control under setting [6].

As to `O=C(O)/C(O)=C(/O)C(=O)O.[NH-]C1CCCCC1[NH-].[Pt+2]`, the T/C is, setting by setting: (endpoint: median survival time, dose: 3.12 mg/kg/injection, schedule: Q04DX003 (ip), vehicle: saline) 97 % of control; (endpoint: median survival time, dose: 25.0 mg/kg/injection, schedule: Q04DX003 (ip), vehicle: saline) 113 % of control and 202 % of control; (endpoint: median survival time, dose: 50.0 mg/kg/injection, schedule: Q04DX003 (ip), vehicle: saline) 337 % of control; (endpoint: median survival time, dose: 200.0 mg/kg/injection, schedule: Q04DX003 (ip), vehicle: saline) 184 % of control.

Take `Nc1cccc(C(=O)O)c1`: the T/C reads like this: under setting [1], 95 % of control; under setting [2], 94 % of control; under setting [3], 94 % of control.

Consider `CC(C)=C(CO)CCC(C)C`, for which the T/C runs as follows: under setting [1], 100 % of control; under setting [2], 103 % of control.

As for `CN(C)C1CCCCC1[N+](C)(C)C` (centres undefined), the T/C runs as follows: (endpoint: mean survival time, dose: 5.0 mg/kg/injection, schedule: Q01DX009 (ip), vehicle: saline) 101 % of control; (endpoint: mean survival time, dose: 5.0 mg/kg/injection, schedule: Q04DX003 (ip), vehicle: saline) 104 % of control; (endpoint: mean survival time, dose: 10.0 mg/kg/injection, schedule: Q01DX009 (ip), vehicle: saline) 107 % of control; (endpoint: mean survival time, dose: 10.0 mg/kg/injection, schedule: Q04DX003 (ip), vehicle: saline) 101 % of control; (endpoint: mean survival time, dose: 20.0 mg/kg/injection, schedule: Q01DX009 (ip), vehicle: saline) 104 % of control; (endpoint: mean survival time, dose: 20.0 mg/kg/injection, schedule: Q04DX003 (ip), vehicle: saline) 98 % of control.

Take `CCOC(=O)c1[nH]cnc1/N=N/N(C)C`: the T/C (endpoint: mean survival time, dose: 16.5 mg/kg/injection, schedule: Q01DX009 (ip), vehicle: saline with Tween-80) was 120 % of control; the T/C under setting [4] was 109 % of control; the T/C under setting [1] is 105 % of control.

On to `NC(=S)N/N=C/c1cc([N+](=O)[O-])ccc1O`, for which the T/C was 113 % of control (endpoint: mean survival time, dose: 50.0 mg/kg/injection, schedule: Q01DX009 (ip), vehicle: Klucel (hydroxypropylcellulose) (HPC)); 97 % of control (endpoint: mean survival time, dose: 100.0 mg/kg/injection, schedule: Q01DX009 (ip), vehicle: Klucel (hydroxypropylcellulose) (HPC)); 101 % of control (endpoint: mean survival time, dose: 200.0 mg/kg/injection, schedule: Q01DX009 (ip), vehicle: Klucel (hydroxypropylcellulose) (HPC)).

`O=C(c1ccc([N+](=O)[O-])cc1)n1ncc2ccccc21`: the T/C is 100 % of control (endpoint: median survival time, dose: 25.0 mg/kg/injection, schedule: Q04DX002 (ip), vehicle: saline with Tween-80); 100 % of control (endpoint: median survival time, dose: 50.0 mg/kg/injection, schedule: Q04DX002 (ip), vehicle: saline with Tween-80); 100 % of control (endpoint: median survival time, dose: 100.0 mg/kg/injection, schedule: Q04DX002 (ip), vehicle: saline with Tween-80); 100 % of control (endpoint: median survival time, dose: 200.0 mg/kg/injection, schedule: Q04DX002 (ip), vehicle: saline with Tween-80).

In the case of `CN(C)CC(CN(C)C)C(=O)O`, the T/C was 103 % of control (endpoint: mean survival time, dose: 50.0 mg/kg/injection, schedule: Q01DX001 (ip), vehicle: saline); 104 % of control under setting [7]; 108 % of control under setting [8].

`c1ccc(Cn2cccc2N=Nc2ccccc2)cc1`: the T/C by setting is: (endpoint: mean survival time, dose: 100.0 mg/kg/injection, schedule: Q01DX001 (ip), vehicle: other) 98 % of control; (endpoint: mean survival time, dose: 200.0 mg/kg/injection, schedule: Q01DX001 (ip), vehicle: other) 101 % of control; (endpoint: mean survival time, dose: 400.0 mg/kg/injection, schedule: Q01DX001 (ip), vehicle: other) 98 % of control.

In the case of `CC(C)CN1CCOCC1`, the T/C is 95 % of control (endpoint: mean survival time, dose: 50.0 mg/kg/injection, schedule: Q01DX009 (ip), vehicle: saline with Tween-80); 97 % of control under setting [4]; 107 % of control under setting [1]; 98 % of control under setting [2].

For the compound `CCNC(=O)Nc1nc2ccccc2s1`, the T/C is, setting by setting: under setting [6], 103 % of control; (endpoint: mean survival time, dose: 200.0 mg/kg/injection, schedule: Q04DX002 (ip), vehicle: saline with Tween-80) 103 % of control; (endpoint: mean survival time, dose: 400.0 mg/kg/injection, schedule: Q04DX002 (ip), vehicle: saline with Tween-80) 92 % of control.

For the compound `CN(C)C(=S)Nc1ccccc1`, the T/C is 95 % of control under setting [4]; 93 % of control under setting [1]; 95 % of control under setting [9]; 90 % of control under setting [2]; 88 % of control under setting [3].

As to `COc1ccc(CCNC(=O)Cc2cc(OC)c(OC)cc2[N+](=O)[O-])cc1OC`, the T/C runs as follows: under setting [7], 94 % of control; under setting [8], 97 % of control; under setting [10], 94 % of control.

Regarding `Cc1cn(C2CC(O)C(CS[As](C)C)O2)c(=O)[nH]c1=O` (centres undefined), the T/C is, setting by setting: (endpoint: mean survival time, dose: 12.5 mg/kg/injection, schedule: Q01DX005 (ip), vehicle: distilled water + Tween-80) 98 % of control; (endpoint: mean survival time, dose: 25.0 mg/kg/injection, schedule: Q01DX005 (ip), vehicle: distilled water + Tween-80) 102 % of control; (endpoint: mean survival time, dose: 50.0 mg/kg/injection, schedule: Q01DX005 (ip), vehicle: distilled water + Tween-80) 102 % of control; (endpoint: mean survival time, dose: 100.0 mg/kg/injection, schedule: Q01DX005 (ip), vehicle: distilled water + Tween-80) 93 % of control.

Turning to `[S-]c1n[n+](-c2ccccc2)c(-c2ccccc2)s1`, the T/C runs as follows: (endpoint: mean survival time, dose: 75.0 mg/kg/injection, schedule: Q01DX001 (ip), vehicle: saline with Tween-80) 95 % of control; (endpoint: mean survival time, dose: 150.0 mg/kg/injection, schedule: Q01DX001 (ip), vehicle: saline with Tween-80) 96 % of control; (endpoint: mean survival time, dose: 300.0 mg/kg/injection, schedule: Q01DX001 (ip), vehicle: saline with Tween-80) 102 % of control.

Consider `COc1cccc(C(=O)O)c1OC`, for which the T/C under setting [4] was 109 % of control, the T/C under setting [9] is 94 % of control and the T/C under setting [5] was 102 % of control.

As for `NC(=S)N/N=C/c1cc(Cl)c2nc(-c3ccccc3)ccc2c1`, the T/C runs as follows: under setting [1], 104 % of control; under setting [2], 102 % of control; under setting [3], 104 % of control.

On to `C[n+]1ccncc1`, for which the T/C by setting is: under setting [7], 102 % of control; under setting [8], 102 % of control; under setting [10], 104 % of control.

Take `Clc1ncc2cnccn12`: the T/C under setting [4] was 101 % of control.

For `Nc1nc(N)c2nc(CN(CCc3ccccc3)c3ccc(C(=O)NC(CCC(=O)O)C(=O)O)cc3)cnc2n1` (centres undefined), the T/C reads like this: (endpoint: mean survival time, dose: 20.0 mg/kg/injection, schedule: Q01DX009 (ip), vehicle: sodium bicarbonate) 100 % of control; (endpoint: mean survival time, dose: 40.0 mg/kg/injection, schedule: Q01DX009 (ip), vehicle: sodium bicarbonate) 105 % of control; (endpoint: mean survival time, dose: 80.0 mg/kg/injection, schedule: Q01DX009 (ip), vehicle: sodium bicarbonate) 108 % of control; (endpoint: mean survival time, dose: 100.0 mg/kg/injection, schedule: Q01DX001 (ip), vehicle: sodium bicarbonate) 96 % of control; (endpoint: mean survival time, dose: 200.0 mg/kg/injection, schedule: Q01DX001 (ip), vehicle: sodium bicarbonate) 98 % of control; (endpoint: mean survival time, dose: 400.0 mg/kg/injection, schedule: Q01DX001 (ip), vehicle: sodium bicarbonate) 102 % of control.

In the case of `CCCCCn1c(C)cc(/C=C\c2ccc3cc(C)ccc3[n+]2C)c1C`, the T/C is 101 % of control (endpoint: mean survival time, dose: 0.62 mg/kg/injection, schedule: Q01DX009 (ip), vehicle: Klucel (hydroxypropylcellulose) (HPC)); 106 % of control (endpoint: mean survival time, dose: 0.63 mg/kg/injection, schedule: Q01DX009 (ip), vehicle: Klucel (hydroxypropylcellulose) (HPC)); 114 % of control and 107 % of control (endpoint: mean survival time, dose: 1.25 mg/kg/injection, schedule: Q01DX009 (ip), vehicle: Klucel (hydroxypropylcellulose) (HPC)).

Turning to `ClCC1C(CCl)C2(Cl)C(Cl)=C(Cl)C1(Cl)C2(Cl)Cl` (centres undefined), the T/C is 100 % of control under setting [4]; 93 % of control under setting [1]; 98 % of control under setting [9]; 95 % of control under setting [2]; 93 % of control under setting [5]; 93 % of control under setting [3].

With `CCCc1nc2[nH]cnc(=S)c2[nH]1`, the T/C runs as follows: (endpoint: mean survival time, dose: 12.5 mg/kg/injection, schedule: Q01DX005 (ip), vehicle: other) 110 % of control; (endpoint: mean survival time, dose: 25.0 mg/kg/injection, schedule: Q01DX005 (ip), vehicle: other) 108 % of control; (endpoint: mean survival time, dose: 50.0 mg/kg/injection, schedule: Q01DX005 (ip), vehicle: other) 96 % of control.
